Molecules are shown by their SMILES. Where “and” joins values, the source holds several entries; their conditions need not be identical. Equal values may be shown once.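 Cells were grown in 96-well plates and exposed to each compound for 48 hours at five concentrations; endpoints were interpolated linearly between bracketing concentrations, or set to the highest concentration if not reached. GI50 is the concentration that inhibits growth by half. TGI is the concentration that stops growth completely.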

Experiment in all cases: NCI-60 cell line screen, 48 h
For experiment [1], the system named is LOX IMVI melanoma.
Experiment [2] concerns MALME-3M melanoma.
Experiment [3] has as its system HCT-15 colon.
Experiment [4] relates to NCI-H522 lung.
The test system of experiment [5] is COLO 205 colon.
Experiment [6] relates to A498 renal.
The subject of experiment [7] is HOP-92 NSCLC.
The test system of experiment [8] is NCI-H460 lung.
In experiment [9] the test system is OVCAR-3 ovarian.
Experiment [10] concerns OVCAR-4 ovarian.

Take `COc1cc(/C=C2\CCC/C(=C\c3ccc(OCC4CO4)c(OC)c3)C2=O)ccc1OCC1CO1` (stereo not given): the GI50 in [1] is 1.23 µM; in experiment [2], 1950 nM; in experiment [3], 2.04 µM; in experiment [4] it was 2470 nM; in experiment [5] it was 2 µM; in experiment [6], 3.62 µM. Also, the GI50 in [7] is 3.3 µM; in experiment [8], 2.37 µM; in experiment [9], 2440 nM. Besides, the TGI in [1] stood at 3.78 µM; in experiment [2] it was 4.56 µM; in experiment [3] it was 4.59 µM; in experiment [4], 6 µM; in experiment [5] it was 3.54 µM; in experiment [6], 10.1 µM. Also, the values for the TGI in [7], in [8] and in [9] were greater than 100 µM, 5.59 µM and 6.23 µM, respectively.
Consider `C=C1C(=O)OC2C1CC(OC(C)=O)/C(C)=C/CCC1(C)OC21` (stereo not given), for which the TGI in experiment [1], in experiment [2], in experiment [3], in [10], in experiment [4] and in experiment [5] was greater than 100 µM throughout. Moreover, the TGI in experiment [7], in experiment [8] and in experiment [9] was greater than 100 µM each time.
Turning to `Cc1ccc(N2C(=O)N(c3ccc(C)cc3)C3(SC=NN3C)C2=O)cc1` (stereo not given), the TGI in experiment [1], in experiment [2], in experiment [10], in experiment [4], in experiment [5] and in experiment [6] was greater than 100 µM each time. The TGI in [7], in [8] and in experiment [9] was greater than 100 µM throughout.
Consider `Oc1ccc(Oc2cnc3ccccc3n2)cc1`, for which the GI50 in experiment [1] was greater than 100 µM; in experiment [2] it was greater than 100000 nM; in [3], greater than 100 µM; in [10] it was 60.3 µM; in experiment [4], greater than 100000 nM; in experiment [5] it was greater than 100 µM. Moreover, the GI50 was 37.2 µM in experiment [6], greater than 100 µM in experiment [8] and greater than 100000 nM in experiment [9]. The TGI in experiment [1], in experiment [2], in [3], in [10], in experiment [4] and in experiment [5] was greater than 100 µM in each case. Further, the TGI in experiment [6], in experiment [8] and in [9] was greater than 100 µM each time.
Consider `NC(=O)CNc1ccc([As]=[As]c2ccc(NCC(N)=O)cc2)cc1` (stereo not given), for which the GI50 is 6.03 µM in experiment [1]; 2620 nM in experiment [2]; 4.21 µM in experiment [3]; 2.61 µM in experiment [10]; 7.83 µM in experiment [5]; 4.69 µM in [6]. The figures for the GI50 in [7], in experiment [8] and in experiment [9] were 1.63 µM, 10.6 µM and 2100 nM, respectively. Besides, the TGI is 23.8 µM in experiment [1]; 9.71 µM in [2]; 60.7 µM in experiment [3]; 49.7 µM in experiment [10]; 22 µM in experiment [5]; 18 µM in experiment [6]. The figures for the TGI in experiment [7], in experiment [8] and in [9] were 15.1 µM, 35.4 µM and 6.14 µM, respectively.
Consider `N#Cc1c(-c2ccco2)cc(-c2ccc(N)cc2)[nH]c1=O`, for which the TGI in experiment [1], in [2], in [3], in experiment [10], in experiment [4] and in experiment [6] was greater than 100 µM throughout. For the same compound, the TGI in experiment [7], in [8] and in [9] was greater than 100 µM throughout.
Take `COc1ccc2c(c1)C(C)Cc1c(ncnc1-n1cnc3ccccc31)N2C` (stereo not given): the GI50 is 0.602 µM in experiment [1]; 0.367 µM in [3]; 1.25 µM in experiment [10]; 254 nM in experiment [4]; 0.33 µM in experiment [5]; 0.234 µM in [6]. Further, the GI50 in experiment [7] was 0.441 µM; in [8], 0.397 µM; in experiment [9] it was 357 nM. The TGI in experiment [1] is 18.2 µM; in experiment [3] it was 10.9 µM; in experiment [10], 30.6 µM; in [4], 0.744 µM; in experiment [5], 1.37 µM; in [6], 10.2 µM. Moreover, the TGI in experiment [7] is 8.23 µM; in experiment [8] it was 11.4 µM; in [9] it was 3.41 µM.
On to `CCc1cccc(C)c1NC(=O)CC1C(=O)Nc2ccccc2S1=O` (stereo not given), for which the TGI in experiment [1], in experiment [2], in [3], in experiment [10], in experiment [4] and in [5] was greater than 100 µM each time. For the same compound, the TGI in [7], in [8] and in [9] was greater than 100 µM in each case.
As for `Cc1ccc(C)c(N2C(=O)C(=O)C(c3nc4ccccc4o3)/C(=N\NC(=O)c3ccccc3O)C2=O)c1` (stereo not given), the TGI in [1] is greater than 100 µM; in [2], greater than 100 µM; in experiment [3] it was greater than 100 µM; in experiment [10], 69.6 µM; in experiment [4], 54 µM; in experiment [5] it was 72.2 µM. Further, the TGI was 76.8 µM in [6], greater than 100 µM in experiment [7] and 63 µM in [9].
On to `Cc1ccc2[c](c1)[Sn]([c]1ccccc1)([c]1ccccc1)[c]1cc(C)ccc1N2C`, for which the GI50 in experiment [1] was 13.2 µM; in experiment [2], 31800 nM; in experiment [3], 36.9 µM; in experiment [10], 41.6 µM; in [4], 21800 nM; in experiment [5], 23.1 µM. Also, the GI50 in experiment [7] was 5.58 µM and 15.7 µM; in experiment [8] it was 51.2 µM; in [9], 37900 nM. Further, the TGI in experiment [1] was 29.6 µM; in [2], 90.7 µM; in [3] it was greater than 100 µM; in experiment [10] it was greater than 100 µM; in experiment [4], greater than 100 µM; in experiment [5], 52.2 µM. In addition, the TGI in [7], in experiment [8] and in [9] was greater than 100 µM throughout.

The values are drawn from PubChem BioAssay (NCI).
